Key:
[1] = prodrug alone; cited from earlier work
[2] = system: SCCVII cells; assay: Growth inhibition of SCCVII cells by 5-FC or 5-FU with or without cell extract from recombinant C. sporogenes
Description: The function of the C. sporogenes-derived cytosine deaminase was tested by assaying its ability to convert the nontoxic 5-fluorocytosine (5-FC) to the toxic 5-fluorouracil (5-FU).

[3] = cited from earlier work
[4] = system: Walker 256 rat carcinoma; details: cited from earlier work
[5] = system: Walker carcinoma cells; details: cited from earlier work
[6] = system: mouse and human tumor cell lines; details: cited from earlier work
[7] = biological target: nitroreductase enzyme from E. coli (Escherichia coli, UniProt P38489); details: cited from earlier work
[8] = system: SCCVII tumor cells; assay: Cell killing of SCCVII cells exposed to CB1954, NADH and supernatant from wild type or recombinant C. acetobutylicum (colony growth); details: 2 hr incubation, NADH 500 μM
Description: The ability of recombinant C. acetobutylicum to activate CB1954 was also tested in vitro, also as described in Example 1. Briefly, recombinant and wild type C. acetobutylicum were inoculated into medium, and after overnight incubation, the cultures were centrifuged and the supernatant collected. The supernatant was added to cultures of SCCVII tumor cells, along with addition of various concentrations of CB1954 in DMSO. After incubation for two hours, the cells were counted by hemocytometer, and appropriate dilutions plated and incubated for colony growth.
In order to test the ability of recombinant C. acetobutylicum to activate CB1954, recombinant and wild type C. acetobutylicum were inoculated into 20 ml of medium. After overnight incubation, the cultures were centrifuged and the supernatant collected and diluted 1:3 with Waymouth's growth medium. […] To these cultures, different concentrations of CB1954 in DMSO were added, and the amount of DMSO adjusted in all of the cultures (including the controls) to 1% DMSO. Controls consisted of cell culture with only the supernatant/cell culture medium mixture. […]
After a 2 hr incubation in air at 37° C., the medium was removed, all the plates were washed 3 times with PBS, trypsinized, the cells counted by hemocytometer, and appropriate dilutions plated and incubated for 10 days in a 5% CO2 incubator at 370 C for colony growth.

[9] = system: human breast and ovarian cancer cells; details: cited from earlier work

Sequence of nitroreductase enzyme from E. coli (P38489 whole entry): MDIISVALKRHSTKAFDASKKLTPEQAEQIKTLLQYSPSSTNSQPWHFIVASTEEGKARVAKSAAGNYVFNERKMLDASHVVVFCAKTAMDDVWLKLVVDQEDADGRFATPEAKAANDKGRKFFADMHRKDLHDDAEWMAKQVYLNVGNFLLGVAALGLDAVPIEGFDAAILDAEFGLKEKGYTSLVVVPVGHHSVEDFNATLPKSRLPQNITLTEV

**Q.** Which “potency relative to hydroxyanaline mustard (times less potent)” value [1] does the source give for “butylated ammonium salt of the glucuronide conjugate of hydroxyanaline mustard” here?
**A.** 10^3 times

**Q.** With `O=c1[nH]cc(F)c(=O)[nH]1` [5-FU, 5-fluorouracil] as the molecule, how does the “effect of cell extract from recombinant C. sporogenes on sensitivity to 5-FU” value [2] read?
**A.** nor did cell extract from recombinant C. sporogenes affect sensitivity to 5-FU

**Q.** Which stability in vivo [3] does the source give for `O=C(O)[C@H]1O[C@@H](n2cc(F)c(=O)[nH]c2=O)[C@H](O)[C@@H](O)[C@@H]1O` [1-N-β-glucuronide of 5-fluorouracil] here?
**A.** stable in vivo

**Q.** For `NC(=O)c1cc(N2CC2)c([N+](=O)[O-])cc1[N+](=O)[O-]` [CB1954, 5-[aziridine-1-yl]-2,4-dinitrobenzamide], which “activity against Walker 256 rat carcinoma in vivo” value [4] is on record?
**A.** potent activity

**Q.** And the “activity on Walker carcinoma cells in vitro” value [5]?
**A.** potent activity

**Q.** And the “activity against a range of mouse and human tumor cell lines” value [6]?
**A.** poor activity

**Q.** And the “difference in sensitivity between rat and human cells (factor)” value [6]?
**A.** 10^4-10^5

**Q.** What about the “rate of reduction of CB1954 relative to that of the rat DT diaphorase” value [7] of the same molecule?
**A.** 60 times

**Q.** What about the “enhancement of the toxicity of CB1954 by supernatant from transformed C. acetobutylicum” value [8] of the same molecule?
**A.** approximately 10 fold

**Q.** For `Nc1nc(=O)[nH]cc1F` [5-FC, 5-fluorocytosine], which “effect of cell extract from C. sporogenes transformed with an empty vector on sensitivity” value [2] is on record?
**A.** did not affect the sensitivity

**Q.** What about the “toxicity of 5-FC plus cell extract from recombinant C. sporogenes compared with 5-FU” value [2] of the same molecule?
**A.** same toxicity as 5-FU

**Q.** What about the “increase in cytotoxicity of 5-FC by cell extract from recombinant C. sporogenes expressing cytosine deaminase (factor)” value ([2]; cell extract 5, 10, 20 μg/ml) of the same molecule?
**A.** 10^4

**Q.** With glucuronide conjugate of epirubicin as the molecule, how does the “toxicity when combined with a Mab-β-glucuronidase conjugate” value [9] read?
**A.** as toxic as epirubicin

**Q.** And the “toxicity of the prodrug (fold less toxic)” value ([9]; prodrug alone)?
**A.** approximately 100 fold

— patent US6984513B2, “Anaerobe targeted enzyme-mediated prodrug therapy” (priority 1994, dated 2006)
